From ChEMBL document CHEMBL1141234, “Synthesis and SAR of highly potent dual 5-HT1A and 5-HT1B antagonists as potential antidepressant drugs” (Bioorg Med Chem Lett, 2005) come the findings set out here.

pIC50, pKi: −log10 of the molar value. Calls of active or inactive are those of the source. The calls are words filed in the database; no cut-off is given here.

The target in data set [1] is T1, 5-hydroxytryptamine receptor 1A (Homo sapiens, UniProt P08908).
T1 sequence (P08908 whole entry): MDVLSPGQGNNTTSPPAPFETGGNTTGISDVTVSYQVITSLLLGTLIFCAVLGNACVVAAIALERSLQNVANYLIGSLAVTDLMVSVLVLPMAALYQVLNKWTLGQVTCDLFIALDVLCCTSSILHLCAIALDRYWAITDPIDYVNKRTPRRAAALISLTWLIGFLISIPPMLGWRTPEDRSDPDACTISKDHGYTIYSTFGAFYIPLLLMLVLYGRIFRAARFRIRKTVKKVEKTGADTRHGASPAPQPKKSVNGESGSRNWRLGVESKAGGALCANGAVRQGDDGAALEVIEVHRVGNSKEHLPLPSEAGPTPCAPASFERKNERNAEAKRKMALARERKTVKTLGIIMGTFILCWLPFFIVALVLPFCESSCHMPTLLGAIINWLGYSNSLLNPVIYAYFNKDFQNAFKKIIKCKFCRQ
Description: Displacement of [35S]GTP-gamma-S from human recombinant 5HT1A receptor. Format: functional. A general note: Loss of bound radioactivity is the signal in a displacement assay; it reports binding, not function.

Data set [2] addresses T2, 5-hydroxytryptamine receptor 1A (Rattus norvegicus, UniProt P19327).
T2 sequence (P19327 whole entry): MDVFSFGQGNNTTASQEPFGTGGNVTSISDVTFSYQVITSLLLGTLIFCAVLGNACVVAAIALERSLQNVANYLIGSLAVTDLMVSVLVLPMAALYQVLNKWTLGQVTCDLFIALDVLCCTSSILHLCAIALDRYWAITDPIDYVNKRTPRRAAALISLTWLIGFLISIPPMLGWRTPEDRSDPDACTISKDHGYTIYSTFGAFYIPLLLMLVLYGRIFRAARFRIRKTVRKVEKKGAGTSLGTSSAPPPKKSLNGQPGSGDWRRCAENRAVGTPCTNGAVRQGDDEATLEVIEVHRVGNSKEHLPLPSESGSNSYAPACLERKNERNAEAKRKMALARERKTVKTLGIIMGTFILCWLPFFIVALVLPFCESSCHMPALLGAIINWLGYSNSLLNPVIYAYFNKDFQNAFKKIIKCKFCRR
Description: Binding affinity for rat 5HT1A receptor.

For data set [3], the target named is 5-hydroxytryptamine receptor 1B (Rattus norvegicus, UniProt P28564). Put plainly: Binding affinity for rat 5HT1B receptor.
Data set [4] can be described thus: Oral bioavailability in rat at 10 mg/kg, po. Format: ADME, organism-based. Conditions: in vivo.
Data set [5] in a line: Ratio of drug level in brain against plasma in rat. It is filed as ADME, organism-based. The conditions noted are these: read-out: BBR.
Data set [6] has as its target T3, 5-hydroxytryptamine receptor 1A (Homo sapiens) (UniProt P08908).
T3 sequence (whole entry): T1 sequence (P08908 whole entry)
Put plainly: Intrinsic activity for 5HT1A receptor in [35S]GTP-gamma-S assay. Format: functional.

In data set [7] the target is 5-hydroxytryptamine receptor 2A (Homo sapiens, UniProt P28223). Put plainly: Inhibitory activity against 5HT2A receptor.
The target of data set [8] is T4, 5-hydroxytryptamine receptor 2C (Homo sapiens, UniProt P28335).
T4 sequence (P28335 whole entry): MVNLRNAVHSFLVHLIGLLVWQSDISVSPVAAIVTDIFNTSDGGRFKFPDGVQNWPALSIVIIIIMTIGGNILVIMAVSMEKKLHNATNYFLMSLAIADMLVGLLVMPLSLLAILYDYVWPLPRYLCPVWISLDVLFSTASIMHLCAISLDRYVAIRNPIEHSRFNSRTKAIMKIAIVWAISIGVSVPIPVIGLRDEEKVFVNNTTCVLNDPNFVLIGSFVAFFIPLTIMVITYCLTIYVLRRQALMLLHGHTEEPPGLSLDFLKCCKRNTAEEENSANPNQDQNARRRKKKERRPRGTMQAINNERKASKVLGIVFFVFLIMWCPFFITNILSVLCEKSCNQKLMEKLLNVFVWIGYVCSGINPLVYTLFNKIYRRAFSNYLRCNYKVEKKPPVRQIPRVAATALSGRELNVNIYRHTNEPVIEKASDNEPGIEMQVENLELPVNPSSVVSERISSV
Put plainly: Inhibitory activity against 5HT2C receptor.

For data set [9], the target named is 5-hydroxytryptamine receptor 5A (Homo sapiens, UniProt P47898). Put plainly: Inhibitory activity against 5HT5A receptor.
Data set [10] deals with 5-hydroxytryptamine receptor 7 (Homo sapiens, UniProt P34969). Description: Inhibitory activity against 5HT7 receptor.
For the next data set, the target named is D(3) dopamine receptor (Homo sapiens, UniProt P35462). Put plainly: Inhibitory activity against dopamine D3 receptor.
The next data set is filed under the species Rattus norvegicus. Description: Electrically stimulated [3H]5-HT release from rat brain cortical slices at 1 uM. It is filed as functional, tissue-based.
The test system of another data set is Mus musculus. Put plainly: In vivo mouse forced swim test at 30 mg/kg, ip. Format: functional, organism-based. The arrangement: dose 30 mg/kg.
Data set [11] has as its target Sodium-dependent serotonin transporter (Homo sapiens) (UniProt P31645). Description: Inhibitory activity against SERT upto 10 uM.
Data set [12] has as its target T3, 5-hydroxytryptamine receptor 1A (Homo sapiens). Description: Functional activity in [35S]GTP-gamma-S assay for 5HT1A receptor. Conditions: filed as antagonist. (In general: Binding of GTPγS marks nucleotide exchange on a G protein.)
Data set [13] has as its target 5-hydroxytryptamine receptor 1B (Homo sapiens, UniProt P28222). Put plainly: Functional activity in FLIPR assay for 5HT1B receptor. The conditions noted are these: filed as antagonist.
The target in data set [14] is Sodium-dependent dopamine transporter (Homo sapiens) (UniProt Q01959). Put plainly: Inhibitory activity against DAT upto 10 uM.
Data set [15] concerns the target Sodium-dependent noradrenaline transporter (Homo sapiens) (UniProt P23975). Description: Inhibitory activity against NET upto 10 uM.

Chain of Sodium-dependent serotonin transporter (Homo sapiens) (P31645 whole entry, looked up): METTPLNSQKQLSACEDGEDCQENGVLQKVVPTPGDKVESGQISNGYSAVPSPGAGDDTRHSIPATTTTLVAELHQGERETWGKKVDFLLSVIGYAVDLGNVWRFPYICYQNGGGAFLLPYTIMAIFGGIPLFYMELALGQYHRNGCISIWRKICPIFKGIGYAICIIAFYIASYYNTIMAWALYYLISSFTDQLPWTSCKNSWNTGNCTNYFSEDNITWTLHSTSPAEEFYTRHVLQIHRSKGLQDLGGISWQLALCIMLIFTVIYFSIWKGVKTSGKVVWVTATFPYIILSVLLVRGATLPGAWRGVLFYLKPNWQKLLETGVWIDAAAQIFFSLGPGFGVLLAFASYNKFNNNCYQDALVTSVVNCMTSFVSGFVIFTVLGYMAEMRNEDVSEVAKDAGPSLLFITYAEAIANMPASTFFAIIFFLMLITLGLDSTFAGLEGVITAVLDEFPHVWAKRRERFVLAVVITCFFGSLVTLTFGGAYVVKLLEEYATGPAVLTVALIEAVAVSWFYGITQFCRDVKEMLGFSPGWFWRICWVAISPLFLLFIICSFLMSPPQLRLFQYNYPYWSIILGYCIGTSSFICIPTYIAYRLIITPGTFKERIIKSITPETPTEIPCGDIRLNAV
Chain of 5-hydroxytryptamine receptor 1B (Rattus norvegicus, UniProt P28564) (P28564 whole entry): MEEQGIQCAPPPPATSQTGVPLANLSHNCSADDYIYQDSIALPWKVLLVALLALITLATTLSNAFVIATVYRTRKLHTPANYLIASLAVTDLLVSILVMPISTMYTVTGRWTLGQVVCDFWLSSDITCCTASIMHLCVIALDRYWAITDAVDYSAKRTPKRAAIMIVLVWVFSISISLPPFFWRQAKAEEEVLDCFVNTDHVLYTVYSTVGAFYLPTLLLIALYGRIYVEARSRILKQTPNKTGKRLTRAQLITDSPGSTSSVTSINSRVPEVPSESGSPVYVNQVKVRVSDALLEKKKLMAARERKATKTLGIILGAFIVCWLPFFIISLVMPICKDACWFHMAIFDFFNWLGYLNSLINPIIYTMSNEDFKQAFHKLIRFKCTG
Chain of 5-hydroxytryptamine receptor 1B (Homo sapiens, UniProt P28222) (P28222 whole entry): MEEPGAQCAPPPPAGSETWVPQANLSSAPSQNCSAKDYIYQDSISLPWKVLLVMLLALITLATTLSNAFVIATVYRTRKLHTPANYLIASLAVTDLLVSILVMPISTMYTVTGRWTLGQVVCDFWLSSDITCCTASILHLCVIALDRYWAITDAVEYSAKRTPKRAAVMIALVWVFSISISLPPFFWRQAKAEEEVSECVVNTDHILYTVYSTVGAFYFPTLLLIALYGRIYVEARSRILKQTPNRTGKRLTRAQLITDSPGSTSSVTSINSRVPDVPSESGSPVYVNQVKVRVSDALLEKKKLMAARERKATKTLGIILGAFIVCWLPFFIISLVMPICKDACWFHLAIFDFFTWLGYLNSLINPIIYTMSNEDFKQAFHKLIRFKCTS
Chain of D(3) dopamine receptor (P35462 whole entry): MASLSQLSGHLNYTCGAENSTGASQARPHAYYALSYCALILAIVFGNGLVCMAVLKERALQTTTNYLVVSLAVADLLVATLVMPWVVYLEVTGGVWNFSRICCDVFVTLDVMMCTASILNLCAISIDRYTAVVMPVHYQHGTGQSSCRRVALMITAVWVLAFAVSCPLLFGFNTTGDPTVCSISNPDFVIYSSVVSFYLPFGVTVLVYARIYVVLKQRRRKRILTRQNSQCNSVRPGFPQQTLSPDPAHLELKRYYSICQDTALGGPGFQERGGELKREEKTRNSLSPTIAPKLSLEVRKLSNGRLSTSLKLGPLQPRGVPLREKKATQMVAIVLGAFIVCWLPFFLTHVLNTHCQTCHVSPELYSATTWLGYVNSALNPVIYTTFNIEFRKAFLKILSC
Chain of Sodium-dependent noradrenaline transporter (Homo sapiens) (P23975 whole entry): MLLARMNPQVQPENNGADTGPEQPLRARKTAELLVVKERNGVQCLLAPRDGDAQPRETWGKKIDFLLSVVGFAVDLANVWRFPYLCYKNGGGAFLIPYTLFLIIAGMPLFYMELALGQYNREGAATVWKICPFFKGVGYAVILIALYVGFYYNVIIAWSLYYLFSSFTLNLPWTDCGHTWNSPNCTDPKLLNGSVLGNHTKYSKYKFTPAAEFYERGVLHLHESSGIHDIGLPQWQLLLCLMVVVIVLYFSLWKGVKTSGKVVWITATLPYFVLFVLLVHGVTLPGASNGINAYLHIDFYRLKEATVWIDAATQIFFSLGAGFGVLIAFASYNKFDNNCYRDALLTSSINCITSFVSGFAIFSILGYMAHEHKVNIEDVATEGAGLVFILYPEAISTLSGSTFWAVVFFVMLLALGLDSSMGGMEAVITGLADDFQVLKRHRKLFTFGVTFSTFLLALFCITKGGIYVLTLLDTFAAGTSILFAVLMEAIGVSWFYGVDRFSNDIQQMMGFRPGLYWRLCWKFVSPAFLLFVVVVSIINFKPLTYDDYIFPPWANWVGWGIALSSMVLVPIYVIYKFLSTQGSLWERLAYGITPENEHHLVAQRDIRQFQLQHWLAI
Chain of Sodium-dependent dopamine transporter (Homo sapiens) (Q01959 whole entry): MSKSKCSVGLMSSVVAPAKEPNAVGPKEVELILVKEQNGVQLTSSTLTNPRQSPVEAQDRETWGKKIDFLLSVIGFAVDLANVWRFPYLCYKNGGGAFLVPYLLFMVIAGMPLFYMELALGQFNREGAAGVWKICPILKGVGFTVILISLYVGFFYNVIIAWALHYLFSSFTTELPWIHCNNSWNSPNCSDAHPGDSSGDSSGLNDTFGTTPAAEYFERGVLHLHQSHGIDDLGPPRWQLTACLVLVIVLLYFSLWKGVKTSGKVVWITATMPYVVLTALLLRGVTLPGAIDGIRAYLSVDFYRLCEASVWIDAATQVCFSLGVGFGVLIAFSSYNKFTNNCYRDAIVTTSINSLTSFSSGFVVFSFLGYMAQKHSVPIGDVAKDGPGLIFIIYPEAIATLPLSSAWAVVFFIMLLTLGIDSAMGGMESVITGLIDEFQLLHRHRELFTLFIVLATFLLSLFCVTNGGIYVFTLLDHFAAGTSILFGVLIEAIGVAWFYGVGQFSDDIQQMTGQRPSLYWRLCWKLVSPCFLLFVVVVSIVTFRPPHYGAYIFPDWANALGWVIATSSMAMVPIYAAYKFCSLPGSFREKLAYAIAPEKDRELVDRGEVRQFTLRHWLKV
Chain of 5-hydroxytryptamine receptor 2A (P28223 whole entry): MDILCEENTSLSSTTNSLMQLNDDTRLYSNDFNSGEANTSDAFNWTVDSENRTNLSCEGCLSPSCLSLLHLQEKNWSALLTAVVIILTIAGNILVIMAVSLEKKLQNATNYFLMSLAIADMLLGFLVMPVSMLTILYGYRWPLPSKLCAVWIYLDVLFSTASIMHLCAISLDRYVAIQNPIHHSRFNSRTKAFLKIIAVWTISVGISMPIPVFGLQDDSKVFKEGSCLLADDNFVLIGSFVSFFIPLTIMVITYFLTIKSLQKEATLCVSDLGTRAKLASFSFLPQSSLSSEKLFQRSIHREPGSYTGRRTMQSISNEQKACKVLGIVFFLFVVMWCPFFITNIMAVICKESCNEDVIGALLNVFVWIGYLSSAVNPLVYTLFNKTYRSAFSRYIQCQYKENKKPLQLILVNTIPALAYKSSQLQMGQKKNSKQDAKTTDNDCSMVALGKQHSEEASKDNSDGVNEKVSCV
Chain of 5-hydroxytryptamine receptor 7 (P34969 whole entry): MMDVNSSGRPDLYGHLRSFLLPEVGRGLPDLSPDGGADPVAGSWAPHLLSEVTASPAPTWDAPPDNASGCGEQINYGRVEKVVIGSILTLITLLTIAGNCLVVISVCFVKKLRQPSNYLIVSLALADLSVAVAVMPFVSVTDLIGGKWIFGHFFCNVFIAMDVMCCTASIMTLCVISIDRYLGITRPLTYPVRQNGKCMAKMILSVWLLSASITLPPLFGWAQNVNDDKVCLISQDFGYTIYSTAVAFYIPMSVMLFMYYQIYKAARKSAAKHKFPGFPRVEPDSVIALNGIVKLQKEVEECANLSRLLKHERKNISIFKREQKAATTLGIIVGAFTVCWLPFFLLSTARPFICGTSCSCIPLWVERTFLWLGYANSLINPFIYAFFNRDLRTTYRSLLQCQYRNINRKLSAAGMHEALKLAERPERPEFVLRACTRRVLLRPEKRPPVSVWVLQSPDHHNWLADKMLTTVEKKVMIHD
Chain of 5-hydroxytryptamine receptor 5A (P47898 whole entry): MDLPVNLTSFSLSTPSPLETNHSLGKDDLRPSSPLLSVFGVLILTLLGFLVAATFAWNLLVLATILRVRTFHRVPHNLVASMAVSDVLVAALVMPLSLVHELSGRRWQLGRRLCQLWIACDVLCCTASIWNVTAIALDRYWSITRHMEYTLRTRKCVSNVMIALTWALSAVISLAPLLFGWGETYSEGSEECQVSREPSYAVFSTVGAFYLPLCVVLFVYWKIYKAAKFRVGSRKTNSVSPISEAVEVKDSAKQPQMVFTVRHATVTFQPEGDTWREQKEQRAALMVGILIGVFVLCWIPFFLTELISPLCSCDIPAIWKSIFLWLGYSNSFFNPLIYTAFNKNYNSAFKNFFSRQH

Usually pIC50 stands for the negative decadic logarithm of the IC50, by convention in mol/L. By pKi is commonly meant −log10 of the Ki, conventionally taken in molar units. What is called bioavailability is the share of a dose that reaches the circulation, judged against a reference dose that is usually intravenous. A low value points to little systemic uptake. A word on the Emax: it is the size of the effect at its maximum, as opposed to the concentration needed. On to `CN1CCc2c(sc3ncn(CCN4CCN(c5cncc6ccccc56)CC4)c(=O)c23)C1`, for which the negative logarithm of the IC50 (pIC50) in data set [1] is 6.50. Further, the pKi in data set [1] was 8.33; in data set [2], 7.79; in data set [3] it was 7.48; in data set [7], 6.74; in [8], below 5.00; in data set [9] it was below 5.00. In addition, the negative logarithm of the Ki (pKi) is 6.28 in [10] and 8.93 on D(3) dopamine receptor. Besides, the bioavailability in data set [4] came out at 11%. The Kp in [5] was determined as 10.2. This compound also gave an Emax in data set [6] of 4%. Further, the Activity entry in the data set filed under Rattus norvegicus was “Dose-dependent effect”; in [12], “Antagonist”; in data set [13], “Antagonist”. The outcome (with Mus musculus; in [11]; in [14]; in data set [15]) was inactive.
